Test results as given in US20100029654A1, “CARDIOVASCULAR COMPOSITIONS AND USE OF THE SAME FOR THE TREATMENT OF ALZHEIMER'S DISEASE” (MOUNT SINAI SCHOOL OF MEDICINE, priority 2006, published 2010).
Where a name gives a salt, the structure may show the parent alone. Read-outs that look alike come from different tables or passages of the source.

Experiments:
Aβ1-40 = Aβ1-40 content in conditioned medium of primary cortico-hippocampal neuron cultures from Tg2576 mice (ELISA; primary and secondary dose-response screening); type: cell-based, mouse; conditions: for activity at 100 µM: 24 h, read-out: Ab1-40 (% of ctl); for activity at 100 µM / Ab1-40 (% of ctl): drug 100 μM; for reduced Aβ1-40: <85% of ctl; for EC50: secondary dose-response screening 0.01-100 μM, 24 hours, read-out: EC50 (molar) Aβ1-40
In short: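 Primary cortico-hippocampal neurons from embryonic Tg2576 mice were plated at 1.0×10^5 cells per well on poly-D-lysine-coated 96-well plates in Neurobasal with 2% B27, 0.5 mM L-glutamine and 1% penicillin-streptomycin. Cultures received drug in 1% DMSO, and Aβ1-40 in the conditioned medium was measured by BioSource ELISA 24 hours after treatment, relative to vehicle controls.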

Aβ1-42 [1] = assay: Aβ1-42 content in conditioned medium of primary cortico-hippocampal neuron cultures from Tg2576 mice (ELISA; primary and secondary dose-response screening); type: cell-based, mouse; conditions: for Ab1-42 (% of ctl) / activity at 100 µM: drug 100 μM; for activity at 100 µM: Mus musculus, Neuron, 24 h, read-out: Ab1-42 (% of ctl); for reducing Aβ1-42: <85% of ctl
In short: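 Primary cortico-hippocampal neurons from embryonic Tg2576 mouse brain were seeded on poly-D-lysine-coated 96-well plates at 1.0×10^5 cells per well in serum-free Neurobasal medium with 2% B27, 0.5 mM L-glutamine and 1% penicillin-streptomycin. For primary screening, duplicate wells received 100 μM drug (1% DMSO final). Vehicle-treated cultures served as controls, and Aβ1-42 in conditioned medium was measured by commercial ELISA.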

Aβ1-42 [2] = assay: as above; type: cell-based, mouse; conditions: for activity at 100 µM / EC50: Mus musculus, 24 h; for activity at 100 µM: primary screening, drug 100 μM, Tg2576 neuron cultures, table sorted by Aβ1-42, read-out: Ab1-42 (% of ctl); for EC50: Neuron, read-out: EC50 (molar) Aβ1-42
[3] = system: primary cortico-hippocampal neuron cultures; assay: MTT in primary screening
[4] = system: primary cortico-hippocampal neuron cultures; assay: lactate dehydrogenase (LDH) activity assay in parallel neuron cultures; conditions: for LDH at E-5M % of change: drug at E-5M
Description: For in vitro treatments drugs available from “The Spectrum Collection” in stocks of 10 mM in DMSO were applied directly to cultures to the desired concentrations (final 1% DMSO); control primary neuron cultures from Tg2576 embryos were treated with vehicle resulting in a final 1% DMSO.
Cell viability was assessed using a commercial available LDH assay kit according to the manufacture's instruction (Promega).

[5] = Mus musculus, primary screening, Tg2576 neuron cultures, table sorted by Aβ1-42
[6] = Primary Screening, table sorted by Aβ1-40
[7] = primary screening, table sorted by Aβ1-42
[8] = Mus musculus, Neuron, Primary Screening, table sorted by Aβ1-40
[9] = Mus musculus, Neuron, primary screening, Tg2576 neuron cultures, table sorted by Aβ1-42
[10] = primary screening, Tg2576 neuron cultures, table sorted by Aβ1-42
[11] = conditioned medium of primary cortico-hippocampal neuron cultures from Tg2576 embryos, 24 hours after treatment, relative to vehicle (1% DMSO) control
[12] = secondary dose-response screening 0.01-100 μM, 24 hours

Row | SMILES | Ab1-40 (% of ctl) (Aβ1-40; [6]) | reduced Aβ1-40 (Aβ1-40; primary screening) | Ab1-42 (% of ctl) (Aβ1-42 [1]; [6]) | MTT (% of ctl) [3, 6] | MTT (% of ctl) [3, 7] | LDH (% of ctl) [4, 6] | LDH (% of ctl) [4, 7] | activity at 100 µM (Aβ1-40; [8]) | activity at 100 µM (Aβ1-40; [9]) | activity at 100 µM (Aβ1-42 [1]; [6]) | activity at 100 µM (Aβ1-42 [1]; [10]) | EC50 (Aβ1-42 [2]; [12]) | LDH at E-5M % of change [4] | EC50 (Aβ1-40; Mus musculus, Neuron) | reducing Aβ1-42 (Aβ1-42 [1]; primary screening) | further results
1 | CO[C@H]1[C@H](O)[C@H](O[C@H]2CC[C@@]3(C)[C@H](CC[C@@H]4[C@@H]3CC[C@]3(C)[C@@H](C5=CC(=O)OC5)CC[C@]43O)C2)O[C@@H](C)[C@@H]1O [Neriifolin] | 79.7 % of ctl | reduced Aβ1-40 | 90.3 % of ctl | 101.2 % of ctl | 101.2 % of ctl | 110.8 % of ctl | 110.8 % of ctl |  |  |  |  |  |  |  |  | activity at 100 µM (Aβ1-40; [5]): 79.7%; activity at 100 µM (Aβ1-42 [2]): 90.3%
2 | COC(=O)C1=C(C)NC(C)=C(C(=O)OC)C1c1ccccc1[N+](=O)[O-] [Nifedipine] |  |  |  | 98.7 % of ctl | 98.7 % of ctl | 76.1 % of ctl | 76.1 % of ctl | 73.4% | 73.4% | 90.6% | 90.6% | 0.0736 µM | 12.0% |  |  | EC50 (Aβ1-42 [2]; [11]): 0.0736 µM
3 | CC(NCCC(c1ccccc1)c1ccccc1)c1ccccc1 (stereo not shown) [Fendiline Hydrochloride] |  | reduced Aβ1-40 |  | 7.7 % of ctl | 7.7 % of ctl | 1881.4 % of ctl | 1881.4 % of ctl | 7.9% | 7.9% | 26.2% | 26.2% | 42 µM | −3.0% | 12.5 µM | useful in reducing Aβ1-42 | 
4 | CCCCCCCCNC(C)C(O)c1ccc(SC(C)C)cc1 (stereo not shown) [Suloctidil] |  | reduced Aβ1-40 |  | 77.7 % of ctl | 77.7 % of ctl | 396.1 % of ctl | 396.1 % of ctl | 1.8% | 1.8% | 4.6% | 4.6% | 21.3 µM | −3.4% | 14.5 µM | useful in reducing Aβ1-42 | 
5 | COc1cc2nc(N3CCN(C(=O)c4ccco4)CC3)nc(N)c2cc1OC [Prazosin Hydrochloride] |  | reduced Aβ1-40 |  | 99.9 % of ctl | 99.9 % of ctl | 260.2 % of ctl | 260.2 % of ctl | 7.6% | 7.6% | 23.2% | 23.2% | 67.6 µM | 5.0% | 571 µM | useful in reducing Aβ1-42 | EC50 (Aβ1-42 [2]; [11]): 67.6 µM
6 | CC[C@@H](C)C(=O)O[C@H]1[C@H](O)[C@H]2[C@@H](CN3C[C@@H](C)CC[C@H]3[C@@]2(C)O)[C@@H]2C[C@]34O[C@]5(O)[C@@H](OC(=O)[C@](C)(O)[C@@H](C)O)CC[C@@]3(C)[C@@H]5[C@@H](OC(C)=O)[C@@H](OC(C)=O)[C@H]4[C@@]21O (stereo in doubt) [Protoveratrine B] | 61.8 % of ctl | reduced Aβ1-40 | 93.3 % of ctl | 58.5 % of ctl | 58.5 % of ctl | 729.8 % of ctl | 729.8 % of ctl |  |  |  |  |  | −2.5% |  |  | Ab1-40 (% of ctl) (Aβ1-40; [10]): 61.8 % of ctl; EC50 (Aβ1-40): 6.73 µM; Ab1-42 (% of ctl) (Aβ1-42 [1]; [10]): 93.3 % of ctl; EC50 (molar) Aβ1-42 (Aβ1-42 [2]; [12]): no fit
7 | C[N+](C)(C)CCCCCC[N+](C)(C)C [Hexamethonium Bromide] | 84.8 % of ctl | reduced Aβ1-40 | 72.6 % of ctl | 92.1 % of ctl | 92.1 % of ctl | 99.7 % of ctl | 99.7 % of ctl |  |  |  |  |  |  |  | useful in reducing Aβ1-42 | activity at 100 µM (Aβ1-40; [5]): 84.8%; activity at 100 µM (Aβ1-42 [2]): 72.6%
